Where a name gives a salt, the structure may show the parent alone.
Test: Purity of the aerosol versus drug foil temperature (Method 2)
Type: physicochemical
Settings: Devices A, 1.0 mg coated
Experimental: Solutions were analysed by UPLC with water (ammonium formate/formic acid) and acetonitrile as mobile phase using UV detection at 275 nm as acquisition wavelength.
This method is based on the US Pharmacopeia “Sampling the Delivered Dose from Metered-Dose Inhalers” of the “Metered-Dose Inhalers and Dry Powder Inhalers” section.
The mouthpiece of the device to be tested was tightly attached to a mouthpiece adapter connected to an end of a 12 cm sample connection tube which at the other end has attached a filter support cap having a ø 47 mm, 2.2 μm pore size, quartz filter (QM-A, Whatman) which was connected to a pump to create an airflow which triggers the flow sensor and the foil substrate is heated.
The material in the filter and the sample connection tube was extracted with methanol and analysed as in Method 1.
The foil substrates of Devices A were coated with 1.0 mg of apomorphine HCl and tested as in Method 2 at different drug foil temperatures (2 devices per temperature point except 310° C. where 4 devices were used). The devices are triggered at a 30 mL/min airflow.

- TAerosol purity (drug foil 260 °C): 98.4 ± 0.6%
- TAerosol purity (drug foil 290 °C): 96.4 ± 0.9%
- TAerosol purity (drug foil 310 °C): 95 ± 1%
- TAerosol purity (drug foil 320 °C): 90.9 ± 0.8%
SMILES: CN1CCc2cccc3c2[C@H]1Cc1ccc(O)c(O)c1-3 [apomorphine HCl]

— patent US20240408325A1, “HANDHELD MEDICAL DEVICE WITH IMPROVED DELIVERY OF AEROSOL PARTICLES” (ALEXZA PHARMACEUTICALS, INC., priority 2021, published 2024)
